# Results as given in paper PMC5122374 (Oncotarget, 2016).
# Columns and labels:
# MDCK cells [1] = experiment: HGF-induced scattering assay; assay type: cell-based, canine; conditions: 18 to 24 h
# Method: MDCK cells (1.5×10^3 cells per well) were plated in 96-well plates and grown overnight. […] The cells were fixed with 4% paraformaldehyde for 15 min at room temperature and then stained with 0.2% crystal violet. The assay was performed in triplicate. Images were obtained using an Olympus IX51 microscope.
# EBC-1 cells [2] = experiment: Cell cycle analysis by flow cytometry; assay type: cell-based, human; conditions: EBC-1, 24 h
# Method: (§1) After 24 h, cells were collected, fixed and stained with propidium iodide (10 μg/mL) for 30 min, then analyzed using a flow cytometer (FACS Caliber instrument; Becton, Dickinson & Co.). Data were plotted using CellQuest (Becton, Dickinson &Co).
# MKN-45 cells [3] = experiment: Cell cycle analysis by flow cytometry; assay type: cell-based, human; conditions: MKN-45, 24 h
# Method: as §1
# [4] = test system: uPA activity in MDCK cells; experiment: Urokinase-type plasminogen activator (uPA) assay; assay type: cell-based, canine; conditions: HGF 100 ng/mL, 24 h, dose-dependent
# Method: MDCK cells (1.5-2 ×10^3 cells per well) were plated in 96-well plate and grown overnight. […] The plate was processed for determination of plasminogen activity by first rinsing wells twice with DMEM (without phenol red), then adding 200 μL of reaction buffer [10%(v/v) 3 mM chromozym PL (Roche) in 100 mM glycine, 40%(v/v) 50 mM Tris (pH 8.2), 50%(v/v) 0.05 unit/mL plasminogen (Roche) in DMEM (without phenol red), and 0.2% Tween-20] to each well. After incubation at 37°C, 5% CO2 for 6 h, the absorbance of each well was read at 405 nm.
# NCI-H441 cells [5] = experiment: HGF-induced Transwell migration assay; assay type: cell-based, human; conditions: NCI-H441, HGF 100 ng/mL, 24 h
# Method: (§2) For the migration assay, NCI-H441 cells suspended in serum-free medium (1.5×10^5 cells per well) were seeded in 24-well Transwell plates (pore size, 8 μm; Corning). […] The cultures were maintained for 24 h, followed by the removal of non-motile cells at the top of the filter using a cotton swab. The migrating cells were fixed in paraformaldehyde (4%) and stained with crystal violet (0.1%) for 15 min at room temperature. The dye that was taken up by the cells bound to the membrane was released by the addition of 100 μL 10% acetic acid, and the absorbance of the resulting solution was measured at 595 nm using a multiwell spectrophotometer (SpetraMAX 190, from Molecular Devices, Palo Alto, CA, USA). The assay was performed in triplicate. Images were obtained using an Olympus BX51 microscope.
# [6] = test system: MMP-9 expression in NCI-H441 cells; experiment: Gelatin zymography of HGF-induced MMP-9 expression; assay type: cell-based, human; conditions: NCI-H441, HGF 100 ng/mL, 24 h, dose-dependent
# Method: NCI-H441 cells were seeded in a six-well plate (5×10^5 per well) and incubated at 37°C. […] The conditioned medium was collected and centrifuged at 12,000 g for 15 min and concentrated by Micro centrifugal filter device (Millipore Corporation). Then the supernatants were collected and separated on 7.5% SDS-PAGE with 2 mg/mL gelatin incorporated into the gel mixture. Following electrophoresis at 4°C, the gels were rinsed briefly with distilled water and washed three times (15 min each) with 150 ml of 2.5% Triton X-100 solution on a rotary shaker. The gels were then incubated at 37°C for 18 h in 250 ml of 50 mmol/L Tris·HCl (pH 7.5) that contained 10 mmol/L CaCl2, 1 μM ZnCl2, 1% Triton X-100, and 0.02% NaN3. After incubation, the gels were stained with 100 ml of 50% methanol, 10% acetic acid, and 0.1% Coomassie blue R-250 for 3 h, then destained with 50% methanol and 10% acetic acid. Finally, the gels were immersed in distilled water for 20 min and quantified by densitometric analysis using Image Lab software (Bio-Rad Laboratories, Inc.).
# [7] = test system: SNU-5 human gastric carcinoma xenograft; experiment: In vivo antitumor activity, SNU-5 xenograft; set-up: species or system nude mice
# Method: Female nude mice (4-6 weeks) were housed five or six mice per cage in a specific pathogen-free room with a 12 h light/dark schedule at 25°C ± 1°C and were fed an autoclaved chow diet and water ad libitum. Animal procedures were performed according to institutional ethical guidelines of animal care. […] After that, the well-developed tumors were cut into 1 mm^3 fragments and transplanted s.c. into the right flank of nude mice using a trocar. […] The sizes of the tumors were measured twice per week using microcaliper. The tumor volume (TV) was calculated as: TV = (length×width^2)/2 and the individual relative tumor volume (RTV) was calculated as follows: RTV = Vt/V0, where Vt is the volume on each day, and V0 is the volume at the beginning of the treatment. RTV was shown on indicated days as the median RTV ± SE indicated for groups of mice. […] Tumor specimens were fixed in 4% paraformaldehyde for 24 h. Tumor samples were subsequently paraffin-embedded, and sliced onto microscope slides. […] Staining was detected using the DAB (3, 3'-diaminobenzidine tetrahydrochloride) Liquid System (ZSGB-Bio) and imaged in 5 different fields of each section. Anti-phospho-c-Met and anti-CD31 antibody immunostained sections were counterstained using hematoxylin. Serum levels of human IL-8 were detected by using Human IL-8 Quantikine ELISA Kit (R&D Systems, Inc.) follows the instructions.
# [8] = Cell proliferation assay, cell panel (SRB or MTT); assay type: cell-based; conditions: human, panel of cells with low c-Met expression or activation; read-out: cytotoxicity IC50 values
# Method: (§3) Cells were seeded in 96-well tissue culture plates. On the next day, cells were exposed to various concentrations of compounds and further cultured for 72 h. For Human umbilical vascular endothelial cells (HUVEC) (passage 3) were transferred to basal medium (without growth factor and serum) for 24 h before compounds treated for another 24 h. Finally, cell proliferation was determined using sulforhodamine B (SRB) assay, Thiazolyl Blue Tetrazolium Bromide (MTT; Sigma) assay or Cell Counting Kit (CCK-8) assay. IC50 values were calculated by concentration-response curve fitting using a SoftMax pro-based four-parameter method.
# [9] = test system: EBC-1 human NSCLC xenograft; experiment: In vivo antitumor activity, EBC-1 xenograft
# Method: . Animal procedures were performed according to institutional ethical guidelines of animal care. […]. After that, the well-developed tumors were cut into 1 mm^3 fragments and transplanted s.c. into the right flank of nude mice using a trocar. When the tumor volume reached 100-200 mm^3, the mice were randomly assigned into vehicle and treatment groups (n = 6 per group). […] The sizes of the tumors were measured twice per week using microcaliper. The tumor volume (TV) was calculated as: TV = (length×width^2)/2 and the individual relative tumor volume (RTV) was calculated as follows: RTV = Vt/V0, where Vt is the volume on each day, and V0 is the volume at the beginning of the treatment. RTV was shown on indicated days as the median RTV ± SE indicated for groups of mice.
# Tumor specimens were fixed in 4% paraformaldehyde for 24 h. Tumor samples were subsequently paraffin-embedded, and sliced onto microscope slides. After dewaxing and blocking endogenous peroxidase activity with 3% H2O2, the sections were incubated with 1.5% normal goat serum, followed by overnight incubation at 4°C with anti-phospho-c-Met antibody (Y1234/1235), anti-CD31 antibody or anti-Ki67 antibody. Then, the sections were incubated with biotin-conjugated anti-rabbit IgG for 2 h at 37°C followed by incubating for 1 h with avidin-biotin-peroxidase complex (ABC) using a Vectastain ABC kit(Vector Laboratories). Staining was detected using the DAB (3, 3′-diaminobenzidine tetrahydrochloride) Liquid System (ZSGB-Bio) and imaged in 5 different fields of each section. Anti-phospho-c-Met and anti-CD31 antibody immunostained sections were counterstained using hematoxylin.
# [10] = test system: c-Met phosphorylation and its downstream signaling; experiment: Immunoblotting of c-Met signaling in HGF-stimulated HUVEC cells; assay type: cell-based, human; conditions: Simm530 2 h then 100 ng/mL HGF 15 min
# Method: Cells were cultured under regular growth conditions to exponential growth phase. […] Those cell lysates were subsequently resolved on 10% SDS-PAGE, and transferred to nitrocellulose membranes. Proteins were probed with specific antibody then subsequently with secondary horseradish peroxidase-conjugated antibody. Finally, immunoreactive proteins were detected using an enhanced chemiluminescence detection reagent (Pierce, Thermo Fisher Scientific Inc.).
# MDCK cells [11] = experiment: HGF-induced cell branching morphogenesis in collagen; assay type: cell-based, canine; conditions: 5 days
# Method: MDCK cells at a density of 2×10^4 cells/mL in DMEM medium were mixed with an equal volume of collagen I solution and plated at 0.1 mL/well in a 96-well culture plate. […] The medium was replaced with fresh growth medium every 2 days. Images were obtained using an Olympus IX51 microscope after 5 days.
# NCI-H441 cells [12] = experiment: HGF-induced Matrigel invasion assay; assay type: cell-based, human; conditions: NCI-H441, HGF 100 ng/mL, 24 h
# Method: as §2
# For the invasion assay, NCI-H441 cells were cultured in the top chambers containing Matrigel-coated membrane inserts (Matrigel, BD). The ensuing procedure was identical to the migration assay. The assay was performed in triplicate. Images were obtained using an Olympus BX51 microscope.
# EBC-1 cells [13] = experiment: Cell proliferation assay (SRB or MTT); assay type: cell-based; conditions: Homo sapiens, EBC-1, 72 h; read-out: anti-proliferative IC50
# Method: as §3
# NCI-H1993 cells = experiment: Cell proliferation assay (SRB or MTT); assay type: cell-based; conditions: Homo sapiens, NCI-H1993, 72 h; read-out: anti-proliferative IC50
# Method: as §3
# SNU-5 cells = experiment: Cell proliferation assay (SRB or MTT); assay type: cell-based; conditions: Homo sapiens, SNU-5, 72 h, read-out: anti-proliferative IC50
# Method: as §3
# MKN-45 cells [14] = experiment: Cell proliferation assay (SRB or MTT); assay type: cell-based; conditions: Homo sapiens, MKN-45, 72 h, read-out: anti-proliferative IC50
# Method: as §3
compound,measurement,setting,value
Cn1cc(-c2cnc3nnc(C(F)(F)c4ccc5ncccc5c4)n3n2)cn1 [Simm530],effect on HGF-induced cell scattering,MDCK cells [1],strongly inhibited
same,sub-G1 cell population (apoptosis),EBC-1 cells [2],no obvious sub-G1 cell population
same,effect on cell cycle distribution,"EBC-1 cells [2]; dose-dependent, P<0.001",G1/S phase arrest
same,sub-G1 cell population (apoptosis),MKN-45 cells [3],no obvious sub-G1 cell population
same,effect on cell cycle distribution,"MKN-45 cells [3]; dose-dependent, P<0.001",G1/S phase arrest
same,effect on HGF-induced urokinase activity,[4],significantly inhibited
same,dose sufficient to block the movement of most cells (motility),NCI-H441 cells [5],4 nM
same,effect on HGF-induced MMP expression,[6],significantly inhibited
same,tumor response,[7]; 12.5 mg/kg and 25 mg/kg oral twice daily,tumor stasis and regression
same,intratumoral phosphorylation of c-Met,"[7]; 2 hours after the final dosage, immunoblotting and IHC",marked and dose-dependent inhibition
same,IL-8 plasma level,"[7]; human IL-8 ELISA, day 21, P<0.001",significant reduction
same,IC50 at 72 h,[8],> 50000 nM
same,tumor response,[9]; 12.5 mg/kg oral twice daily,Tumor stasis
same,mice showing no signs of tumor,[9]; 100 mg/kg twice daily,4 of the 6
same,tumor response,[9]; 50 and 100 mg/kg oral twice daily,tumor regression
same,intratumoral phosphorylation of c-Met,"[9]; 2 hours after the final dosage, immunoblotting",marked and dose-dependent inhibition
same,CD31-positive endothelial cells (microvessel density),"[9]; IHC, 2 h after final administration",significant reduction
same,tolerance (body weight),"[9]; all tested dosages, data not shown",lack of significant weight loss
same,effect on c-Met phosphorylation and its downstream signaling,[10],potently inhibited
same,effect on HGF-induced branching morphogenesis,MDCK cells [11],strongly inhibited
same,dose sufficient to block the movement of most cells (invasion),NCI-H441 cells [12],4 nM
same,IC50,EBC-1 cells [13],0.7 nM
same,IC50,NCI-H1993 cells,0.8 nM
same,IC50,SNU-5 cells,0.9 ± 0.2 nM
same,IC50,MKN-45 cells [14],0.7 ± 0.1 nM
